From publication PMC6271559, “Synthesis and Evaluation of 2,4-Disubstituted Quinazoline Derivatives with Potent Anti-Angiogenesis Activities” (Molecules, 2014)
Like-named read-outs stand apart in the source and are kept apart here.

How the values were obtained:
[1] = test system: HUVEC adhesion to collagen; experiment: HUVEC adhesion assay on type I collagen; assay type: cell-based, human; conditions: Homo sapiens, HUVEC, adhesion of HUVEC on collagen, 37 °C
Text: A perfect angiogenesis inhibitor must be show lower toxicity toward HUVECs, while showing high inhibitive capability towards the proliferation, migration, and differentiation of HUVECs. To assess the inhibitory effects of 2,4-disubstituted quinazoline derivatives, three assays were used: HUVEC adhesion assay, HUVEC migration assay and CAM assay. Firstly, to test the inhibitory effects of quinazoline derivatives on the attachment of endothelial cells to type I collagen, cell adhesion assays were carried out.
Cell adhesion assay was carried out by a reported method with slight modification. Wells of a 96-well plate were coated at room temperature overnight with rat trail tendon collagen type I (2 μg) in PBS in a final volume of 100 μL. The wells were washed three times with PBS ([…]) and then blocked with 0.2% bovine serum albumin (BSA) in PBS ([…]) for 2 h at 37 °C in a cell culture incubator. The wells were then washed three times with PBS ([…]). HUEVCs were detached from the dish, resuspended in DMEM, and added (50 μL, 10^4 cells/mL) to each well followed by the related compounds (50 μL) at various concentrations. The plates were incubated for 1 h or 3 h at 37 °C and then washed three times with PBS (100 μL). The attached cells were fixed and stained with 0.2 % crystal violet in 20% methanol for 10 min, then washed three times with PBS ([…]). The cells were solubilized by 2% SDS and the OD was measured at 570 nm. Attachment was determined by both 1 and 3 h as described above. Each compound was tested in triplicate and each experiment was repeated three times.

[2] = test system: SMMC-7721 (human liver cancer) cells; experiment: MTT cytotoxicity assay, SMMC-7721; assay type: cell-based; conditions: 48 h, mean of three independent assays
Text: (§1) In the early 80s, scientists proposed anti-angiogenesis as a potential target in cancer therapy. Much research in the past 30 years has targeted tumor angiogenesis as a means of inhibiting the process of tumor-caused blood vessel formation. Endothelial cells, which come from the inner lining of blood vessels, makes up a fundamental part of new blood vessels as well as pre-existing ones. A complete angiogenesis process includes the proliferation, migration, and differentiation of endothelial cells, so a great deal of angiogenesis inhibitors discovered to date target endothelial cells. We thus employed a cell proliferation assay to evaluate the cytotoxicity of quinazoline derivatives against both normal (HUVEC) and tumor cell lines (CNE-2, PC-3, and SMMC-7721 cell lines) so we can screen some molecules that have cytotoxicity against tumor cells but low cytotoxicity against HUVECs. Meanwhile, an appropriate concentration range of these compounds could be determined to further study their inhibitive effects against the proliferation, migration, and differentiation of HUVECs. The cytotoxic activities of quinazoline derivatives against human tumor cell lines CNE-2 (human nasopharyngeal cancer), PC-3 (human prostatic carcinoma), SMMC-7721 (human liver cancer) and Human Umbilical Vein Endothelial Cells (HUVECs) were determined by using the MTT cytotoxicity assay.
(§2) HUVEC, CNE-2, PC-3, and 7721 cell lines were seeded on 96-well plates at a concentration of 5,000 cells per well and exposed to various concentrations of quinazoline derivatives. After 48 h of treatment at 37 °C in a humidified atmosphere of 5% CO2, 5 mg/mL MTT solution (10 μL) was added to each well and further incubated for 4 h. Each well was then added dimethyl sulfoxide (DMSO, 100 μL), and the optical density (OD) was recorded at 490 nm. All measurements were done in triplicate, and the IC50 values were derived from the mean OD values of the triplicate tests versus drug concentration curves.

[3] = MTT cytotoxicity assay, HUVEC; assay type: cell-based; conditions: human, HUVEC (human umbilical vein endothelial cells), mean of three independent assays
Text: as §1, §2

[4] = test system: PC-3 (human prostatic carcinoma) cells; experiment: MTT cytotoxicity assay, PC-3; assay type: cell-based; conditions: Prostatic carcinoma cell, 48 h, mean of three independent assays
Text: as §1, §2

[5] = test system: chick embryo chorioallantoic membrane (CAM); experiment: CAM angiogenesis assay; assay type: in vivo; conditions: 30 μg/10 μL on filter disc, 48 h
Protocol: CAMs treated with 0.9% NaCl solution (negative control) were surrounded by all antoic vessels as newly-formed capillaries converging radially toward the sponge in a “spoked wheel” pattern (number of vessels 24 ± 3).
The in vivo CAM angiogenesis model as initially described by Folkman and then modified by Maragoudakis was used. Fertilized chicken eggs were used after incubating them for 8 days. A 1 cm × 1 cm window was made in the shell to create a pocket to expose the CAM. A filter disc with 0.9% NaCl solution or 30 μg/10 μL of compounds was then placed upon the CAM from 10 eggs per treatment and 48 h later, the CAMs were fixed with 4% paraformaldehyde and the vessel number from three random fields around the filter disc were pictured using a microscope.

[6] = test system: CNE-2 (human nasopharyngeal cancer) cells; experiment: MTT cytotoxicity assay, CNE-2; assay type: cell-based; conditions: 48 h, mean of three independent assays
Text: as §1, §2

HUVEC migration = HUVEC migration (wounding) assay; assay type: cell-based, human; conditions: 15 μM and 30 μM, 24 h
Protocol: Compounds were tested at concentrations of both 15 μM and 30 μM, and all seven compounds tested in this assay could inhibit HUVEC migration.
The HUVEC cell line was seeded on a pre-treated 48-well culture plate at a concentration of 2 × 10^4 cells per well in a volume of 200 μL, and a portion of the cell monolayer was scraped off with a sterile disposable rubber policeman. After the DMEM medium was removed, the cells in each well were then washed three times with PBS (phosphate-buffer saline), and fresh medium was added to each well. The wells were then tested after incubation for 24 h with or without quinazoline derivatives at various concentrations. Two random pictures were taken for each wound using a microscope. The area of the migrations was measured using Photoshop CS3. All measurements were done in triplicate, and the experiments were done at least three times.

Work on `CN(C)CCCNc1nc(-c2ccccc2NC(=O)CCN2CCN(C)CC2)nc2ccccc12` [Compound 11d, N-(2-(4-(3-(Dimethylamino)propylamino)quinazolin-2-yl)phenyl)-3-(4-methylpiperazin-1-yl)propane-mide] yielded an inhibition at 15 µM ([1]; 1 h, 1 h, read-out: 1 h Inhibition Rate % Dose 15 μM) of 47.4 ± 0.1%, an inhibition at 30 µM ([1]; 1 h, 1 h, read-out: 1 h Inhibition Rate % Dose 30 μM) of 65.8 ± 0.2% and an inhibition at 15 µM ([1]; 3 h, 3 h, read-out: 3 h Inhibition Rate % Dose 15 μM) of 53.3 ± 0.3%. It also gave an inhibition at 30 µM ([1]; 3 h, 3 h, read-out: 3 h Inhibition Rate % Dose 30 μM) of 71.2 ± 0.1%, an IC50 [2] of 10.9 ± 0.2 µM and an IC50 at 48 h [3] of 47.2 ± 0.2 µM. The melting point was 167 to 168 °C, the IC50 [4] was 9.8 ± 0.3 µM and the “inhibition of angiogenesis in CAM assay” value [5] was “excellent inhibition of angiogenesis”. The IC50 [6] was 9.3 ± 0.2 µM and the “inhibition of HUVEC migration” value (HUVEC migration) was “best inhibitory activity”.
